Source: PMC6154605, “Multi-Anti-Parasitic Activity of Arylidene Ketones and Thiazolidene Hydrazines against Trypanosoma cruzi and Leishmania spp” (Molecules : A Journal of Synthetic Chemistry and Natural …, 2017)
Like-named read-outs stand apart in the source and are kept apart here.

Legend:
[1] = test system: T. cruzi epimastigotes, Tulahuen 2 strain (genotype TcVI); test: In vitro anti-T. cruzi activity, growth inhibition of epimastigotes; assay type: cell-based, Trypanosoma cruzi; conditions: for IC50: Trypanosoma cruzi, TULAHUEN; for Trypanocidal activity on T. cruzi in words: molecular stripping, epimastigotes; for SI J774.1/ T. cruzi: ratio IC50 mammalian cell / IC50 parasite (epimastigotes)
Method: For the in vitro anti-T. cruzi activity, we used epimastigotes of the Tulahuen 2 strain (genotype TcVI) grown in an axenic milieu (BHI-Tryptose). Cells from a 5–7-day-old culture were inoculated in fresh culture milieu to give an initial concentration of 1.00 × 10^6 cells/mL. The absorbance at 600 nm of the cells in culture was measured every day. At Day 5, the milieu was inoculated with different quantities of the compounds from a stock solution in DMSO (DMSO concentration in the culture milieu never exceeded 0.4%). The control was made in the presence of 0.4% DMSO and in the absence of compounds. Each concentration of compound was evaluated in duplicate. At Day 5, the absorbance of the culture was measured and related to the control. […] Each antiproliferative experiment was done in duplicate, and each concentration was tested in triplicate.

[2] = test system: L. infantum promastigotes; test: Leishmanicidal activity on promastigotes, resazurin; assay type: cell-based, Leishmania infantum; conditions: for IC50: Leishmania infantum, 48 h, read-out: IC50 ± SD Promastigotes L. infantum; for SI NCTC/ L. infantum: ratio IC50 mammalian cell / IC50 parasite (promastigotes)
Text: (§1) We initially selected compounds previously reported to have anti-T. cruzi activity from our chemical library to evaluate their leishmanicidal activity. […]. To evaluate their activity in Leishmania spp., we performed a phenotypic screening using the promastigote form of L. infantum (MHOM/FR/91/LEM-2259) and L. braziliensis ([…]) (Table 1A for the thiazolidenehydrazine derivate and Table 1B for the arylideneketones family).
(§2) A culture of L. braziliensis (MHOM/BR/75/M2904) and L. infantum (MHOM/FR/91/LEM2259V) was obtained from the Facultad de Farmacia (Universidad Complutense, Madrid, Spain). The maintenance of the strains, the form of cultivation and the isolation of the shape of the promastigote were performed following the procedures described by Roldos et al.. The promastigotes were grown at 22 °C in Schneider’s Drosophila medium supplemented with 20% FBS. The assay was performed using a modification of a previous method. Promastigotes (2 × 10^6 parasites/well) were cultivated in 96-well plastic plates. Compounds were dissolved in dimethylsulfoxide (DMSO). Different dilutions of the compounds with a final volume up to 200 µL were added. After 48 h at 26 °C, 20 µL of a 2 mM resazurin solution were added, and the oxidation-reduction was quantified at 570 and 600 nm. The solution of resazurin was prepared at 2.5 mM in phosphate buffered solution (PBS), pH 7.4, and filtered through 0.22-µm membranes prior to use. All tests were carried out in triplicate. Resazurin sodium salt was obtained from Sigma-Aldrich (St. Louis, MO, USA) and stored at 4 °C protected from light. The efficacy of each compound was estimated by calculating the IC50 values. Each antiproliferative experiment was done in duplicate, and each concentration was tested in triplicate.

[3] = test system: L. braziliensis promastigotes; test: as above; assay type: cell-based, Leishmania braziliensis; conditions: for IC50: Leishmania braziliensis, 48 h, read-out: IC50 ± SD Promastigotes L. braziliensis; for SI NCTC/ L. braziliensis: ratio IC50 mammalian cell / IC50 parasite (promastigotes)
Text: as §1, §2

[4] = test system: J774.1 murine macrophages; test: Nonspecific cytotoxicity on macrophages, MTT; assay type: cell-based; conditions: Mus musculus, J774.1, 48 h; read-out: IC50 ± SD Murine Macrophages
Method: (§3) To establish the selectivity of the compounds against the parasites, nonspecific cytotoxicity against mammalian cells, using J774.1 murine macrophages and fibroblast NCTC929, was studied for the most relevant derivatives. The selectivity indexes were calculated as the ratio between cytotoxicity for mammalian cells and the anti-parasitic activity (Table 2).
J774.1 murine macrophage cells (ATCC, USA) were grown in DMEM culture milieu containing 4 mM L-glutamine and supplemented with 10% FCS. The cells were seeded in a 96-well plate (5.00 × 10^4 cells in 200 µL culture medium) and incubated at 37 °C in a 5% CO2 atmosphere for 48 h, to allow cell adhesion prior to drug testing. Afterwards, cells were exposed for 48 h to the compounds (25–400 μM) or the vehicle for control (0.4% DMSO), and additional controls (cells in medium) were used in each test. Cell viability was then assessed by measuring the mitochondria-dependent reduction of MTT (3-(4,5-dimethylthiazol-2-yl)-2,5-diphenyltetrazolium bromide) to formazan. For this purpose, MTT in sterile PBS (0.2% glucose), pH 7.4, was added to the macrophages to achieve a final concentration of 0.1 mg/mL, and the cells were incubated at 37 °C for 3 h. After removing the medium, formazan crystals were dissolved in 180 μL of DMSO and 20 μL of MTT buffer (0.1 M glycine, 0.1 M NaCl, 0.5 mM EDTA, pH 10.5), and the absorbance at 560 nm was measured. The IC50 was defined as the drug concentration at which 50% of the cells were viable, relative to the control (no drug added), and was determined by analysis using OriginLab8.5® sigmoidal regression (% of viable cells vs. the logarithm of the compound concentration). Tests were performed in triplicate.

NCTC929 fibroblasts = test: Nonspecific cytotoxicity on fibroblasts, resazurin; assay type: cell-based; conditions: NCTC-929, 24 h; read-out: IC50 ± SD Fibroblast NCTC929
Method: as §3
NCTC-Clone 929 were grown in minimal essential medium (Sigma) supplemented with 10% heat-inactivated FBS, penicillin G (100 U/mL) and streptomycin (100 µg/mL). Cell cultures were maintained at 37 °C in a humidified 5% CO2 atmosphere. The procedure for cell viability measurement was evaluated with resazurin by a colorimetric method. The cells were plated in 96 microtiter plates at 3.00 × 10^4 cells/well in 100 µL growth medium. The cells were grown overnight at 37 °C, 5% CO2. Thereafter, the medium was removed, and the compounds were added to 200 µL of medium for 24 h. After incubation, 20 µL of a 2 mM resazurin solution were added to each well. The plates were incubated for 3 h to allow optimal oxidation-reduction. The reduction of resazurin was determined by dual wavelength absorbance measurement at 490 and 595 nm. The background was subtracted. Each concentration was assayed three times. Medium and drug controls were used in each test as blanks.

[5] = Figure 4, molecular stripping of HIT1, read-out: Effect of structural change on trypanocidal activity (emoticon code)
[6] = Tulahuen 2 strain, read-out: IC50 ± SD Epimastigotes T. cruzi

Row | IC50 [1, 6] | melting point | Compound | IC50 [1, 5] | Trypanocidal activity on T. cruzi in words [1] | SI J774.1/ T. cruzi [1] | IC50 [2] | SI NCTC/ L. infantum [2] | IC50 [3] | SI NCTC/ L. braziliensis [3] | IC50 [4] | IC50 (NCTC929 fibroblasts)
1 | > 25 µM |  | C(=Cc1ccccc1)CN1CCN(/N=C/C=C/c2ccco2)CC1 [GAT0913b, (E)-4-cinnamyl-N-((E)-3-(furan-2-yl)allylidene)piperazin-1-amine] | > 25 µM | the activity was lost | 1 | 21 ± 2 µM | 8 | 18 ± 5 µM | 9 | 25 ± 3 µM | 160 ± 7 µM
2 | 11 ± 4 µM | 150 to 153 °C | C=CCn1c(C(=O)CNN2CCN(CC=Cc3ccccc3)CC2)cs/c1=N/N=C\C=C\c1ccco1 [GAT0613, 1-((Z)-3-allyl-2-((E)-((E)-3-(furan-2-yl)allylidene)hydrazono)-2,3-dihydrothiazol-4-yl)-2-((4-cinnamylpiperazin-1-yl)amino)ethanone] |  | the activity was lost |  | > 25 µM |  | 25 µM |  |  | 
3 | 1.6 ± 0.3 µM | 148 to 150 °C | Cc1ccc(/C=C/C=C/C(/C=C/C=C/c2ccc(C)o2)=NN2CCN(CC=Cc3ccccc3)CC2)o1 [GAT1113, N-((1E,3E,6E,8E)-1,9-bis(5-methylfuran-2-yl)nona-1,3,6,8-tetraen-5-ylidene)-4-cinnamylpiperazin-1-amine] | < 5 µM |  | 28 | 14 ± 2 µM | 12 | 16 ± 4 µM | 10 | 45 ± 5 µM | 165 ± 5 µM

Continued, molecule first:

Row | Compound | IC50 [1, 6] | melting point | IC50 [1, 5] | Trypanocidal activity on T. cruzi in words [1] | SI J774.1/ T. cruzi [1] | IC50 [2] | SI NCTC/ L. infantum [2] | IC50 [3] | SI NCTC/ L. braziliensis [3] | IC50 [4] | IC50 (NCTC929 fibroblasts)
4 | C=CCn1c(-c2ccc(Cl)cc2)cs\c1=N/N=C/C=C/c1ccc(C)o1 [GAT0113A] | 3 ± 0.5 µM | 220 °C (dec.) |  | equipotent to the parent compound | 22 | 8 ± 2 µM | 40 | 10 ± 1 µM | 32 | 66 ± 7 µM | 319 ± 16 µM
5 | Clc1ccc(-c2csc(N/N=C/C=C/c3ccco3)n2)cc1 [GAT2212B] | 1.2 ± 0.3 µM | 212 °C (dec.) |  |  |  | 25 µM |  | > 25 µM |  |  | 
6 | C=CCn1c(-c2ccc(Cl)cc2)cs\c1=N/N=C/C(C)=C/c1ccco1 [GAT0513] | 0.09 ± 0.02 µM | 228 °C (dec.) |  | active against T. cruzi | 611 | 58 ± 12 µM | 25 | 33 ± 11 µM | 44 | 55 ± 5 µM | 1440 ± 30 µM
